Tests used:
[1] = tested on: human cell lines; experiment: HA synthesis by human cell lines (unpublished data); assay type: cell-based; conditions: compared with parent drug 4-MU
[2] = Conversion of 4-MUG into fluorescent 4-MU in medium (fluorescence plate reader); assay type: in vitro ADME; conditions: PBS with 10% FCS, monitored up to 72 hours
Description: Given the established activity of 4-MU leading to inhibition of HA synthesis, it seemed possible that the bioactivity of 4-MUG could be attributed to its hydrolysis into 4-MU. It is generally known that 4-MU is fluorescent while 4-MUG is not. In particular, 4-MU has an excitation wavelength of 380 nm and an emission wavelength of 454 nm in water.
Fluorescent values of 4-MUG were normalized to the 4-MU fluorescence. Referring to FIG. 2 B, 4-MU or 4-MUG was added to PBS with 10% FCS and the increase of fluorescence signal using a fluorescence plate reader was monitored at intervals up to 72 hours.

[3] = Chemical stability of 4-MUG in fasted state simulated gastric fluid; assay type: physicochemical; conditions: 100 μM, FaSSGF pH 1.6, 37° C., 0-120 minutes
Description: To determine the chemical stability of 4-MUG, its half-life (t1/2) was evaluated. 4-MUG was tested at a concentration of 100 μM. The internal standard (IS) was prepared at 50 ng/mL with tolbutamide in DMSO and a buffer solution was prepared of fasted state simulated gastric fluid (FaSSGF) at pH 1.6. The buffer was pre-warmed at 37° C. for 15 minutes, subsequently 4-MUG was added, and the solution was vortexed. Next, 30 μL of this reaction mixture was removed at each time point for analysis. The time points included 0 minutes, 15 minutes, 30 minutes, 60 minutes and 120 minutes. The reaction was stopped at the end of the experiment by adding IS solution. The samples were centrifuged at 4,000 rpm for 15 minutes at 4° C. 100 μL of the supernatant was mixed with distilled water for further liquid chromatography with tandem mass spectrometry (LC-MS/MS) analysis. The mass spectrometry detection was performed using a SCIEX® API 4500 Qtrap® (Sciex, Redwood City, Calif.). Each compound was analyzed by reverse phase high performance liquid chromatography (HPLC). The parameters calculated were the ratio of 4-MUG, the percent of 4-MUG remaining versus time, and the estimation of 4-MUG's t1/2.

[4] = Water solubility (statement); assay type: physicochemical
[5] = design: species or system mice; conditions: mouse, in vivo
Description: The 4-MU (Alfa Aesar) was pressed into mouse chow (TestDiet, St. Louis, Mo.) and irradiated before shipment, as previously described (Nagy N., et al., Circulation. 2010; 122(22):2313-2322). This chow formulation delivers 250 mg/mouse/day, yielding a serum drug concentration of 640.3±17.2 nmol/L in mice, as measured by HPLC-MS. 4-MUG (ChemImpex, Wood Dale, Ill.) was distributed in the drinking water at a concentration of 2 mg/ml, delivering 10 mg/mouse/day, yielding a serum drug concentration of 357.1±72.6 ng/mL in mice, as measured by LC-MS/MS. Mice were initiated on 4-MU and 4-MUG at five, eight or twelve weeks of age, unless otherwise noted, and were maintained on this diet until they were euthanized, unless otherwise noted. For analysis of Foxp3+ regulatory T-cell numbers in naïve mice, mice were treated daily with 0.5 mg of 4-MU or 1.0 mg 4-MUG in 200 μl 0.08% carboxymethylcellulose in saline by intra-peritoneal injection.
4-methylumbelliferone-13C4 (Toronto Research Chemicals, Ontario, Canada) was used as the internal standard (IS) for 4-MU and 7-hydroxycoumarin β-D-glucuronide (Toronto Research Chemicals, Ontario, Canada) as the IS for 4-MUG. The neat stock solutions of 4-MU and 4-MUG were mixed and diluted in 50% methanol to prepare the spiking solutions ranging from 1 ng/mL to 5000 ng/mL for each compound. […]

[6] = cited from earlier work

time from which fluorescence (conversion to 4-MU) could be detected [2] | chemical stability [3] | water solubility [4] | amount of 4-MUG in fat and muscle, 4-MU treatment compared to 4-MUG treatment [5] | Structure (SMILES) | inhibition of HA synthesis by human cell lines [1] | fraction of a single intravenous dose eliminated as the 4-MUG metabolite in urine ([6]; in humans, single intravenous dose of 4-MU) | half-life ([6]; in humans) | share of 4-MU metabolism accounted for by glucuronidation into 4-MUG ([6]; in humans) | fraction of a given dose excreted unchanged in the urine ([6]; species not given) | systemic oral bioavailability ([6]; species not given)
around 30 hours | stable | water-soluble |  | Cc1cc(=O)oc2cc(O[C@@H]3O[C@H](C(=O)O)[C@@H](O)[C@H](O)[C@H]3O)ccc12 [4-MUG, 4-methylumbelliferone-glucuronide] | just as well as the parent drug |  |  |  |  | 
 |  |  | significantly higher amount of 4-MUG | Cc1cc(=O)oc2cc(O)ccc12 [4-MU, 4-methylumbelliferone] |  | 93% | 28 min | over 90% | < 1% | < 3%

Source: patent US20220079966A1, “HYALURONAN SYNTHESIS INHIBITION FOR TREATING AUTOIMMUNE, INFLAMMATORY, FIBROTIC, OR PROLIFERATIVE DISEASES OR DISORDERS” (The Board of Trustees of the Leland Stanford Junior …, priority 2018, published 2022)
